# Experimental data taken from patent US8029553B2, “Portable laser and process for pain research” (priority 2004, dated 2011).
# “Also recorded” adds a separate entry of the source.
# Key:
# [1] = molecular target: T1, TRPV1 (Rattus norvegicus, UniProt O35433); assay: Whole cell patch recording of diode laser evoked inward currents in TRPV1 positive (type 2) DRG cells; format: cell-based; settings: capsazepine 10 uM, close superfusion, two minute application; laser pulses 20 ms and 2.41 W (1200 mA)
# T1 construct: DRG cells TRPV1 positive cells (Type 2) and TRPV2 positive cells (Type 4) were irradiated; from tissue; host or cells: primary neurons dissociated from rat dorsal root ganglia (type 2 cells)
# T1 sequence (O35433 whole entry, the tested form may be a part): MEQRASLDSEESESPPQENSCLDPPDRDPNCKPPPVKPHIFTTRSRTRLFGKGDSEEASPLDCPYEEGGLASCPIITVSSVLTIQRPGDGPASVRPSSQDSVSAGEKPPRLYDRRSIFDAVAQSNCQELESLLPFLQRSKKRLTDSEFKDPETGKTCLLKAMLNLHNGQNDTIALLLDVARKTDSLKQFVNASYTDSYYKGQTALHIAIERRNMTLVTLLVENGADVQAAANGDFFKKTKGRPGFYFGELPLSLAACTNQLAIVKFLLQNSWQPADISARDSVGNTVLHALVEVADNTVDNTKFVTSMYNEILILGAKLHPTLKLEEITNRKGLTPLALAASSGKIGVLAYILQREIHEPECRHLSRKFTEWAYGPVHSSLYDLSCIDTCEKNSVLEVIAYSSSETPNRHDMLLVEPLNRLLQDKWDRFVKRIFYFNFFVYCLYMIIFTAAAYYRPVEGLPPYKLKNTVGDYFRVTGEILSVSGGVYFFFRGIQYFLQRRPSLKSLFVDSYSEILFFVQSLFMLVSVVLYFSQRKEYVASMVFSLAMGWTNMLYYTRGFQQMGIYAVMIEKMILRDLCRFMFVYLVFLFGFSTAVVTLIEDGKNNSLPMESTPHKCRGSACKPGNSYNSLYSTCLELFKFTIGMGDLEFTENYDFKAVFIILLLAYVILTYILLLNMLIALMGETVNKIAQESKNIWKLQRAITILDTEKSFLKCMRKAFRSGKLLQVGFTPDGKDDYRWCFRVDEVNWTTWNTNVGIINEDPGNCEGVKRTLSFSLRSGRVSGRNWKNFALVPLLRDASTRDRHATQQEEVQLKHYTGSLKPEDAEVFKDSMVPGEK
# Description: Rats were anesthetized with halothane. Following decapitation, the spinal cord was rapidly removed, and the dorsal root ganglia were dissected free. Dissected ganglia were placed in a heated bath (35° C. for 70 min) containing dispase II and collagenase (2 mg/ml; Sigma type 1). Following wash and trituration, recovered cells were plated on 10 polylysine coated, 35 mm Petri dishes. Cells were bathed continuously in a rat Tyrode's solution containing (mM): 140 NaCl, 4 KCl, 2 MgCl2, 2 CaCl2, 10 glucose, and 10 HEPES, pH adjusted to 7.4 with NaOH. Only one cell was used from each dish. Bath temperature was maintained at 32° C. by a feedback-controlled bath heater (TCbip; Cell Microsystems).
# Electrodes were prepared (2-4 MΩ) from glass pipettes using a Brown and Flaming type horizontal puller (Sutter model P87). Whole cell recordings were made with an Axopatch 200B (Axon Instruments). Stimuli were controlled and digital records captured with pClamp 8.2 software and Digidata 1322A A/D converter (Axon Instruments). Series resistance (Rs) was compensated 40-60% with Axopatch 200B compensation circuitry. Whole cell resistance and capacitance was determined by Clampex 8.2 software utility. A liquid junction potential of approximately 4 mV was not corrected.
# Recordings were made from cells with diameters between 25 and 45 μm.
# Lass 10 M investigational diode laser (Lasmed LLC) was used in all studies. […]
# [2] = tested on: C fiber mediated pain; settings: background statement; cited from earlier work
# [3] = tested on: C fibers; assay: Threshold pulse duration for hot pain by 980 nm diode laser, stimulation of C fibers; format: in vivo, human; settings: healthy volunteer affected by topical capsaicin
# Description: Subjects: A chronic pain patient with hypersensitivity and a healthy volunteer were tested. Both subjects gave informed consent and the experiments were approved by the local institutional review board. The hairy skin of left hand was used for both volunteers. In preparing the subjects testing, they were asked to respond orally immediately after they perceived any threshold sensation and/or to interrupt lasing pulse by pressing STOP button. They then described the level and type of evoked sensation, location of sensation, how long the sensation lasted, whether the sensation was single (monomodal) sensation or if there were more than one evoked sensations by a single stimulation. Afterwards, the threshold pulse was applied 3 times to different areas with interval of ˜3 min or after the previous sensation (pain) had disappeared. The appearance redness was an indication of skin irritation. Step 1: To test duration of pulse that evoked threshold warmth sensation only, the output power was set to 1.5 W, beam size adjusted to 5 mm. The pulse was applied to the skin. When the volunteer reported warmth (pain) sensation the lasing was stopped. […] The pulse duration for tolerance for hot pain was 2000 ms. […] When this button was pushed the command “stop lasing” was activated, duration of applied pulse was measured and it was indicated on the screen of PC connected to the device by RS232 interface. […]
smiles,measurement,setting,value
Oc1cc2c(cc1O)CN(C(=S)NCCc1ccc(Cl)cc1)CCC2 [capsazepine],currents evoked by 980 nm stimuli,[1],dramatically reduced; also recorded: reduced currents
CN1CC[C@]23c4c5ccc(O)c4O[C@H]2[C@@H](O)C=C[C@H]3[C@H]1C5 [morphine],effectiveness in inhibiting C fiber mediated pain compared with A delta fiber mediated pain,[2],much more effective
COc1cc(CNC(=O)CCCC/C=C/C(C)C)ccc1O [Capsaicin],threshold pulse duration by reflex time monitored with infrared CCD camera,"[3]; 1.5 W, 5 mm, without delay of individual reaction (1270 ms without capsaicin)",650 ms
same,threshold pulse duration for hot pain,"[3]; output power 1.5 W, beam size 5 mm, hairy skin of left hand, lasing stopped by volunteer (1300 ms without capsaicin)",800 ms
